Counter-ions that a name gives are not always drawn.
How the values were obtained:
[1] = Solution stability of salt forms (purity change relative to starting purity)
From the text: As part of the program to improve the process for the manufacture of the sodium salt of (2S,5R)-2-(1,3,4-oxadiazol-2-yl)-7-oxo-1,6-diazabicyclo[3.2.1]octan-6-yl hydrogen sulfate, a new intermediate capable of isolation and utility in the production was sought.
Additionally, the picoline salt precursor was examined for solution stability as an alternative hold point for the process.

[2] = Stability of isolated solid picoline salt at 2 weeks; type: physicochemical; conditions: FIG. 23
From the text: Also, the volume inefficiency, throughput bottlenecks, and impurity generation associated with the TBA to Na salt resin exchange process created the need for an improved step. Accordingly, there was a need for a stable solid that could be isolated, stored, and be used as needed to produce the desired sodium API in a reliable, scalable process. In screening different salt forms and examining the potential for crystallizations (as a means to isolate the salt forms), the TBA, pyridine, 5-ethyl-2-methylpyridine, and 2,6-lutidine forms of the API were not able to be successfully isolated in solid form.

[3] = Solubility characteristics of crystalline form; type: physicochemical; conditions: a particular (crystalline) form
From the text: The compound of Formula (II) is the 2-picoline salt of (2S,5R)-2-(1,3,4-oxadiazol-2-yl)-7-oxo-1,6-diazabicyclo[3.2.1]octan-6-yl hydrogen sulfate, i.e., 2-methylpyridin-1-ium (2S,5R)-2-(1,3,4-oxadiazol-2-yl)-7-oxo-1,6-diazabicyclo[3.2.1]octan-6-yl sulfate.

Compound	solution stability in dichloromethane solution ([1]; DCM, room temperature, compared with the TBA salt, FIGS. 22A and 22B)	stability in solution ([1]; in solution, early clinical productions)	stability of isolated solid [2]	solubility characteristics [3]	solution stability in aqueous environments ([1]; aqueous solution, high dilution (~1 wt %), FIGS. 21A and 21B)
O=C1N2C[C@@H](CC[C@H]2c2nnco2)N1OS(=O)(=O)O [Formula (II), 2-methylpyridin-1-ium (2S,5R)-2-(1,3,4-oxadiazol-2-yl)-7-oxo-1,6-diazabicyclo[3.2.1]octan-6-yl sulfate]	significantly inferior to the TBA salt	unstable in solution	found to be stable	low solubility	–
tetrabutylammonium (2S,5R)-2-(1,3,4-oxadiazol-2-yl)-7-oxo-1,6-diazabicyclo[3.2.1]octan-6-yl sulfate [TBA salt, reference compound]	–	–	–	–	found to be a risk for long term scale-up
